Measured values reported in patent US20070105874A1, “Anti-Tumor Methods Using Multi Drug Resistance Independent Synthetic HSP90 Inhibitors” (Conforma Therapeutics Corporation, priority 2005, published 2007).

Experiments:
P-gp = biological target: T1, P-gp (Homo sapiens, UniProt P08183); test: Rhodamine 123 retention (P-gp efflux inhibition) in H295R cells; assay type: cell-based; conditions: rhodamine 123, concentrations up to 10 mM
T1 construct: adrenocortical carcinoma, a tumor that naturally expresses P-gp; endogenous in cells; host or cells: H295R adrenal cortical carcinoma cells
Procedure: Rhodamine 123 level within cells was measured by flow cytometry as described in FIG. 9.

[1] = system: H295R adrenal cortical carcinoma cells; test: MTS cytotoxicity assay in H295R adrenal cortical carcinoma cells; conditions: 5 days
Procedure: H295R cells were plated in 96-well plate at low confluence and were analyzed for IC50 as described in FIG. 2 with indicated compounds.
(§1) MTS assays measure the cytotoxicity of the compounds. […] Cells were seeded in 96 well plates at 2000 cells/well and allowed to adhere overnight in Dulbecco's modified Eagle's medium supplemented with 10% fetal bovine serum. The final culture volume was 100 μl. Viable cell number was determined by using the Celltiter 96 AQueous Non-radioactive Cell Proliferation Assay (Promega, Madison Wis.). The MTS/PMS (phenazine methosulfate) solution was mixed at a ratio of 20:1, and 20 μL was added per well to 100 μl of culture medium. After 2-4 hours, the formation of the formazan product was measured at 490 nm absorbance using a multiwell plate spectrophotometer. Background was determined by measuring the Abs 490 nm of cell culture medium and MTS-PMS in the absence of cells and was subtracted from all values. Percent viable cells was calculated as follows: % viable cells=(Abs at 490 nm treated cells/Abs at 490 nm untreated cells)×100

[2] = system: P-gp over-expressing MES SA Dx5 and NCI/ADR-Res cells; test: MTS cytotoxicity assay in P-gp over-expressing versus non-expressing cell lines; assay type: cell-based
Procedure: The cell lines were plated in 96-well plate at 10-20% confluence and treated with increasing concentrations of indicated drug from 1 nM to 10 mM. 5 days later, the surviving fraction was estimated by MTS assay.
as §1

C=CCNC1=C2CC(C)CC(OC)C(O)C(C)/C=C(\C)C(OC(N)=O)C(OC)/C=C\C=C(/C)C(=O)NC(=CC1=O)C2=O (centres unmarked) [Compound 17-AAG, (4E,6Z,10E)-19-(allylamino)-13-hydroxy-8,14-dimethoxy-4,10,12,16-tetramethyl-3,20,22-trioxo-2-azabicyclo[16.3.1]docosa-1(21),4,6,10,18-pentaen-9-yl carbamate]
inhibitory effect on P-gp efflux activity (P-gp): No inhibitory effect
cytotoxic potency in adrenal cortical carcinoma [1]: more potent than CsA

CO[C@H]1/C=C\C=C(/C)C(=O)NC2=CC(=O)C(NCCN(C)C)=C(C[C@@H](C)C[C@H](OC)[C@H](O)[C@@H](C)/C=C(\C)[C@@H]1OC(N)=O)C2=O [Compound 17-DMAG, (4E,6Z,8S,9S,10E,12S,13R,14S,16R)-19-(2-(dimethylamino)ethylamino)-13-hydroxy-8,14-dimethoxy-4,10,12,16-tetramethyl-3,20,22-trioxo-2-azabicyclo[16.3.1]docosa-1(21),4,6,10,18-pentaen-9-yl carbamate]
P-gp substrate status ([2]; cytotoxicity in cell lines expressing P-gp or MRP to various extent): P-gp substrates
cytotoxic potency in adrenal cortical carcinoma [1]: weak

COc1c(C)cnc(Cn2cc(C#CCCC(N)=O)c3c(Cl)nc(N)nc32)c1C [Compound XI, 5-(2-amino-4-chloro-7-((4-methoxy-3,5-dimethylpyridin-2-yl)methyl)-7H-pyrrolo[2,3-d]pyrimidin-5-yl)pent-4-ynamide]
increase of IC50 in P-gp+++ lines ([2]; P-gp+++ lines): 10-20 fold
